US10653687B2, “Methods and pharmaceutical compostions for treating rhabdomyolysis” (INSERM (INSTITUT NATIONAL DE LA SANTE ET DE LA RECHERCHE …, priority 2015, dated 2020)
Entries after “also recorded” stand apart in the source; their conditions may differ.

Experiments:
[1] = tested on: myoblasts; assay: Intracellular calcium mobilization in myoblasts (Fluo-4 Assay); type: cell-based, human; details: for intracellular calcium mobilization in patient myoblasts stimulated with CpG-A: pre-treatment, concentration not given; for intracellular calcium on stimulation with the substance: control and patient myoblasts, live imaging
Method: Intracellular calcium mobilization was measured in myoblasts using the Fluo-4 Assay from Invitrogen according to the manufacturer's directions and as defined previously. Cells were loaded with 1 μm Fluo-4 for 30 min at 37° C. in 5% CO2/95% O2, as described previously […]. The plates were then transferred to a temperature-controlled stage (Harvard Apparatus, Holliston, Mass., USA) on an Olympus IX-70 inverted microscope. Cultures were visualized using a 40×0.7 numerical aperture fluorite water-immersion objective (TC-SP8 Leica).
To evaluate the link between muscle damage and inflammation, we explored TLR ligand involvement in the control of intracellular Ca2+ dynamics, as its intracellular increase is the hallmark of rhabdomyolysis. The levels of intracellular Ca2+ recorded using live imaging of resting cells were equivalent among control and patient cells. […] This effect observed with patient cells was specific for TLR9 ligands since no response was observed following exposure to LPS or Imiquimod in both patient and control cells. Pre-treatment with 10 μM of chloroquine or ODN-i abolished intracellular calcium mobilization in patient cells in presence of CpG-A completely. […] To obtain additional evidence for the role of inflammation in muscle damage, we measured ATP production in myoblasts following stimulation with CpG-A; we found an impairment of ATP production following stimulation with inflammatory stimuli in patient cells compared to control. To confirm the deleterious effect of TLR9 ligands in patient myoblasts, we incubated myoblasts with increasing doses of CpG-A and measured cellular mortality at different time point as accessed by the viability assay. Myoblasts from patients were exclusively sensitive to TLR9 ligands.

[2] = molecular target: T1, TLR9 (Homo sapiens, UniProt Q9NR96); assay: IL-6 secretion of myoblasts stimulated with CpG-A (TLR9 ligand) after pre-treatment with TLR9 antagonists; type: cell-based; details: myoblasts pre-treated with the substance, then stimulated with CpG-A
T1 construct: endogenous in cells; host or cells: primary human CD56+ myoblasts from muscle biopsies
T1 sequence (Q9NR96 26-1032): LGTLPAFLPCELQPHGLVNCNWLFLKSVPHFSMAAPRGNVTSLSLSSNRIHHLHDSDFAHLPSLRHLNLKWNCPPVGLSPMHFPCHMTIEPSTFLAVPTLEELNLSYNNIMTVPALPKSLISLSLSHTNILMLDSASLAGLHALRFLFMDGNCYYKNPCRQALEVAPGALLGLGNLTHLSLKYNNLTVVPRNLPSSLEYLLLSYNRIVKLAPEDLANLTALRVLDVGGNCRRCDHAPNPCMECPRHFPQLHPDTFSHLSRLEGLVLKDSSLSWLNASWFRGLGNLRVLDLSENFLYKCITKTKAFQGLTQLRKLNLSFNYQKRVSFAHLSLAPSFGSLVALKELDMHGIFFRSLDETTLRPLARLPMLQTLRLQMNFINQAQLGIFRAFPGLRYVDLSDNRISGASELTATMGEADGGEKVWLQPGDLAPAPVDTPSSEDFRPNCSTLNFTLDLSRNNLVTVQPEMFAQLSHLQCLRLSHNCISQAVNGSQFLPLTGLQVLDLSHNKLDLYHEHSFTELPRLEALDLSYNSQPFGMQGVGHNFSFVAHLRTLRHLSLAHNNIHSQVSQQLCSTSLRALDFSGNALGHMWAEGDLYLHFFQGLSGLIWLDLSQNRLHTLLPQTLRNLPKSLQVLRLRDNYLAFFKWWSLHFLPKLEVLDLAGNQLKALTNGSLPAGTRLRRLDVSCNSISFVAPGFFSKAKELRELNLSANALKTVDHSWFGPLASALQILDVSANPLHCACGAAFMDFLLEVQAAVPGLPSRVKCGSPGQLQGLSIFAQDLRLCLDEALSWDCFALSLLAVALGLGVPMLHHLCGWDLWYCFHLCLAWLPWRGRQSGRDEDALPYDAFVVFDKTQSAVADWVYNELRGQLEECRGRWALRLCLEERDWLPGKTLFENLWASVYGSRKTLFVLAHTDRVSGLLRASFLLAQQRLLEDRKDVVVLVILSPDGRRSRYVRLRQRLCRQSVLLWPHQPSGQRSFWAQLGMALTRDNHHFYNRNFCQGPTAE
Method: Human primary myoblasts were isolated and grown as described. CD56+ myoblasts were isolated by flow cytometry cell sorting using an anti CD56-APC conjugated antibody (e. Biosciences) and routinely maintained in F10 medium supplemented with 20% Fetal Bovine Serum (FBS).
After 12 hours of TLR stimulation of DC at 37° C. in humidified air containing 5% CO2, the concentrations of human IL-8, IL-6, tumor necrosis factor (TNF)-α, IL-1β, IL-10, IL-4, Monocyte Chemoattractant Protein-1 (MCP-1), RANTES (Regulated on Activation, Normal T cell Expressed and Secreted), and Macrophage Inflammatory Protein (MIP)-1-α and β in the culture supernatants were measured with a human cytokine Cytometric Bead Assay (CBA) kit (BD Biosciences, San Jose, Calif.) in accordance with the manufacturer's instructions. In brief, 50 μL of supernatant was mixed with 50 μL of mixed capture beads, and a standard curve was generated. After 3 hours of incubation at room temperature, the samples were washed and suspended in Phosphate-Buffered Saline (PBS) and then analyzed by flow cytometry (ARIA II; BD Biosciences) with CBA Analysis Software (FCAP Array version 3.0; Soft Flow, St Louis Park, Minn.). The results are expressed in picograms per milliliter. […]

[3] = Treatment of lipin-1 patients with hydroxychloroquine: muscle pain and serum cytokines; type: in vivo, human; details: two patients, 6 mg/Kg/day, at three months of treatment
Method: Two patients were treated with hydroxychloroquine (Plaquenil®, 6 mg/Kg/day).

Compound | intracellular calcium mobilization in patient myoblasts stimulated with CpG-A [1] | secretion of IL-6 after stimulation by CpG-A [2] | intracellular calcium on stimulation with the substance [1] | also measured
COc1cc(NC(C)CCCN)c2ncccc2c1 (stereo not shown) [primaquine] | abolish | attenuate or abolish; also recorded: abolish | – | –
CC(C)Cn1cnc2c(N)nc3ccccc3c21 [Imiquimod, imiquimod] | – | – | no response | –
C[C@H](CCC(=O)O)C[C@H](C)C[C@H](C)C(=O)/C=C(\O)[C@H](C)C[C@H](C)C/C=C/[C@@H](C)[C@@H](O)[C@@H](C)[C@@H](O)C[C@@H]1CC[C@@](C)([C@H]2CC[C@@](C)([C@@H](C)O)O2)O1 [ionomycin] | – | – | induced a rapid calcium flux | –
CCN(CC)CCCC(C)Nc1ccnc2cc(Cl)ccc12 (stereo not shown) [chloroquine] | abolish | attenuate or abolish; also recorded: abolish | – | intracellular calcium mobilization in presence of CpG-A ([1]; patient cells (myoblasts), pre-treatment with 10 μM): abolished
O=C1CN(/N=C/c2ccc(-c3ccc([N+](=O)[O-])cc3)o2)C(O)=N1 [dantrium] | – | – | – | elevation of intracellular calcium ([1]; patient myoblasts, chelation of intracellular calcium): inhibited
CCN(CCO)CCCC(C)Nc1ccnc2cc(Cl)ccc12 (stereo not shown) [hydroxychloroquine] | – | – | – | muscle pain [3]: decrease; pro-inflammatory cytokines (IL-8, RANTES, MCP-1) in sera [3]: dramatic decrease
